Entries after “also recorded” stand apart in the source; their conditions may differ. Structures can show the parent of a compound that is named as a salt. Where two headings read alike, the source gives them in different places.
Experiments:
[1] = Hydrolysis of the sodium salt upon standing; assay type: physicochemical
Procedure: Five thousand grams of 3-[N-phenylacetylaminopiperidine]-2,6-dion was pulverized in a grinder, then suspended in 44 liters of pyrogen-free water. Concentrated sodium hydroxide in pyrogen-free water was added stepwise and stirred until all the powder was dissolved. The pH of the mixture was 7.0. Activated charcoal (U.S.P.) was added and stirred for 45 minutes, and then filtered. The concentration of the filtrate was adjusted to 103 mg/ml with pyrogen free water. The filtrate was then processed according to standard U.S.P. procedure for large volume injections of single dose infusions.

[2] = tested on: advanced neoplastic diseases; test: Phase I clinical studies, 500 mg capsules (Example 1); assay type: in vivo, human; conditions: 500 mg capsules daily
Procedure: The phase I clinical studies with 3-[N-phenylacetylaminopiperidine]-2,6-dion 500 mg capsules involved 42 patients diagnosed with 49 types of advanced neoplastic diseases. The formulation was administered daily for from 6 to 314 days. The highest dosage taken was 288.4 mg/kg/24 hours. […] Positive clinical response was obtained in 75% of 49 treated cases.

[3] = tested on: human neoplastic diseases; test: Treatment of various human neoplastic diseases (general clinical statement); assay type: in vivo
Procedure: Various human neoplastic diseases were treated with 3-[N-phenylacetylaminopiperidine]-2,6-dion or its degradation products.

[4] = Acute toxicity in mice, intraperitoneal injection
Rd/3 sarcoma = conditions: rats, Neish, Experientia, 27: 860 (1971), cited from earlier work

O=C1CCC(NC(=O)Cc2ccccc2)C(=O)N1 (stereo not shown) [3-[N-phenylacetylaminopiperidine]2,6-dion sodium salt]
basic hydrolysis upon standing [1]: undergoes basic hydrolysis to form the sodium salts of phenylacetyl glutamine and phenylacetyl isoglutamine

O=C1CCC(NC(=O)Cc2ccccc2)C(=O)N1 (stereo not shown) [3-[N-phenylacetylaminopiperidine]-2,6-dion]
best clinical effects observed in [2]: chronic myelocytic leukemia and chronic lymphocytic leukemia, adenocarcinoma of the prostate, carcinoma of the breast and glioma | desirable side effects [2]: decrease of plasma levels of triglycerides and cholesterol; also recorded: increase of white blood cell count, red blood cell count and platelet count; also recorded: improvement of blood clotting | adverse reactions ([2]; highest dosage 288.4 mg/kg/24 hours): minimal adverse reactions, including excessive gas, gastrointestinal bleeding (most likely not related to 3-[N-phenylacetylaminopiperidine]-2,6-dion but to primary disease), moderately increased blood pressure, skin rash, vertigo, hypokalemia, hypoglycemia and mild myelosuppression | Positive clinical response ([2]; of 49 treated cases, 6 to 314 days): 75% | usefulness / effectiveness in the treatment of human cancers ([3]; Applicant's clinical studies): effective to some extent in aiding the regression of tumors | regression of tumors associated with named human cancers ([3]; cancer of esophagus, breast, bladder, colon, lung, prostate, pancreas, uterine cervix, brain, bone and lung metastases, lymphatic lymphoma): with success in the regression of tumors | autopsy and microscopic findings in animals which died ([4]; HA/ICR swiss mice, intraperitoneal): congestion of the liver and marked pulmonary edema | acute toxicity, overall ([4]; experimental animals): very low toxicity | observation of surviving animals ([4]; kept one week under close observation): normal activity | autopsy and microscopic examination of tissues of surviving animals ([4]; sacrificed after a week, versus control uninjected subjects): identical to those of control, uninjected subjects

O=C(O)Cc1ccccc1 [sodium salt of phenylacetic acid]
effect on tumor growth, Rd/3 sarcoma (Rd/3 sarcoma): failed to inhibit tumor growth | effect on tumor growth, Rd/3 sarcoma (Rd/3 sarcoma; listed as phenylacetic acid): some enhancement of tumor growth

Source: US4918193A, “Methods for preparing 3-[N-phenyl-acetylaminopiperidine]-2,6-dion” (priority 1989, dated 1990)
